According to patent EP2404925A1, “New all trans platinum (IV) complexes, their preparation and their use as antitumor agents” (Universidad Autónoma de Madrid, priority 2010, dated 2012):

Assays:
CCRF-CEM = assay: In vitro antiproliferative assay (14C-thymidine uptake), CEM cells; assay type: cell-based, human; settings: 72 h incubation, then 14C-thymidine uptake recorded 24 h later
Protocol: (§1) • CCRF-CEM is a human T-cell leukemia cell line (DSMZ ref ACC 240), established in 1964 from peripheral blood of young child bearing a terminal-stage ALL (Foley et al., Cancer 18: 522-529 (1965)). • NCI-H460 is a human epidermoïd lung tumour cell line, obtained from the NCI (NCI-Frederick. Tumor Bank). • MX1 is a human mammary carcinoma tumour, harbouring BRCA1 mutation, obtained from NCI (NCI-Frederick. Tumor Bank).
(§2) Tumour cells were grown in appropriate culture medium, either RPMI-1640 or DMEM, complemented with 10% calf-fetal serum and antibiotics.
(§3) Cell proliferation was evaluated by ^14C-thymidine uptake in DNA. Exponentially growing cells - from 5.10^3 to 10^4 per well in 180 µL culture medium - were introduced in a 96-wells microtitration Cytostar-T apparatus (GE Healthcare Bio-Sciences, Uppsala, Sweden). After 4 hours pre-incubation under CO2 atmosphere at 37°C, compounds were added in 10 µL volume. After incubation for an additional 72 hours period, 0.1 µCi ^14C-thymidine was added in each well, C^14 -thymidine uptake was recorded 24 hours later on a scintillation counter (Perkin-Elmer Life Sciences, Boston, MA, USA). IC50, defined as the dose which inhibits 50% of cell proliferation, were thus determined.

NCI-H460 = assay: In vitro antiproliferative assay (14C-thymidine uptake), H460 cells; assay type: cell-based, human; settings: 72 h incubation, then 14C-thymidine uptake recorded 24 h later
Protocol: as §1, §2, §3

[1] = Toxicity (body weight loss, drug deaths) in the MX1 tumor model study; assay type: in vivo, SCID mice
Protocol: (§4) 7 to 8 weeks-old female SCID mice, obtained from Charles River (L'Arbresle, Lyon , France) were acclimated for at least 1 week previous experiment.
(§5) When ΔT/ΔC values are negative, the percentage of regression is evaluated. A Partial regression (PR) is defined as a decrease in tumor volume greater than or equal to 50% of the tumor volume at start of treatment. A Complete regression (CR) is defined as a decrease in tumor volume below the limit of palpation (T=10mm^3). At the end of the study, the number of tumor free survivor (TFS) which correspond to mice without any detectable tumor is determined. Both drug-related deaths and maximum percent relative mean net body weight loss are also determined. A body weight loss (mean of group) of greater than 15% for more than 3 consecutive days or 20% weight loss for one day or 10% drug deaths are considered to indicate an excessively toxic dosage.

MX1 tumor = assay: In vivo antitumor evaluation in MX1 tumor model; design: species or system SCID mice; settings: for SRI activity rating: day 10 to day 15 post tumor implantation
Description: as §1, §4
Animals, placed under normal light cycle, had then ad libitum access to food and water. MX1 cells, 10^7 cells per mouse initially grown in RPMI medium supplemented with 10% foetal-calf serum and antibiotics, were subcutaneously implanted in mice. When […] tumour volume was reached, fragments (2-3 mm diameter) were cut, placed in phosphate buffer (PBS), bilaterally implanted and further passaged in mice until tumour growth rate is stable, before starting the experiment. Tumors were measured with a caliper twice weekly until the tumor reached 2000 mm^3 or until the animal died (which ever come first). Tumor volumes were estimated from 2 dimensional measurements: Volume (in mm^3) = (a x b^2)/2, where a and b are the tumor length and width (mm) respectively. The variation from the baseline of the tumoral volume is calculated in the treated and control group. These values are used to calculate the median in the treated group (ΔT) and in the control group (ΔC). ΔT/ΔC, expressed as a percentage, is the ratio of median at a chosen day (the last day before it becomes necessary to sacrifice control mice owing to tumor size). ΔT/ΔC values can be translated into an activity rating, according to the Southern Research Institute (SRI) criteria:
as §5

[2] = i.v. daily during 5 days at 5 mg/kg
[3] = i.v. daily during 5 days at 10 mg/kg
[4] = i.v. daily during 5 days at 5 mg/kg (25 mg/kg total dose)
[5] = i.v. daily during 5 days at 10 mg/kg (50 mg/kg total dose)

N.N.[Cl][Pt][Cl] [cisplatin, reference compound]
IC50 (CCRF-CEM): 400 to 800 nM | IC50 (NCI-H460): 2600 to 4000 nM

O=C1[O][Pt]2([NH][C@@H]3CCCC[C@H]3[NH]2)[O]C1=O [oxaliplatin, reference compound]
IC50 (CCRF-CEM): 4000 nM | IC50 (NCI-H460): 2400 nM

CC(=O)[O][Pt]([NH2])([Cl])([Cl])([NH]C1CCCCC1)[O]C(C)=O [satraplatin, reference compound]
IC50 (CCRF-CEM): 400 nM | IC50 (NCI-H460): 190 nM

Trans-trans-trans-{PtCl2(OH)2(dimethylamine)[(exo)-2- norbornylamine]} [EXAMPLE 3]
IC50 (CCRF-CEM): 31 nM | IC50 (NCI-H460): 315 nM

Trans-trans-trans-{PtCl2(OH)2(isopropylamine)[(rac)-(endo)-norbornylamine]} [EXAMPLE 2]
IC50 (CCRF-CEM): 25 nM | IC50 (NCI-H460): 255 nM

Trans-trans-trans-{PtCl2(OH)2(isopropylamine)[(rac)-(exo)-norbornylamine]} [EXAMPLE 1]
IC50 (CCRF-CEM): 53 nM | IC50 (NCI-H460): 532 nM | toxicity for mice ([1]; 20 mg/kg): toxic | deaths ([1]; 20 mg/kg, deaths on days 17, 19, 20, 21 and 24 (2 mice)): 6/6 | body weight loss [1, 2]: 4% | drug death [1, 2]: no drug death | body weight loss [1, 3]: 12% | drug death [1, 3]: no drug death | maximal tolerated dose ([1]; i.v., daily for 5 days schedule): 10 mg/kg | CR (complete regression) (MX1 tumor; [2]): 100% | ΔT/ΔC (MX1 tumor; [4]): < 0% | SRI activity rating (MX1 tumor; [4]): highly active | CR (complete regression) (MX1 tumor; [3]): 100% | TFS (tumor free survivor) at the end of the study (MX1 tumor; [3]): 2 | ΔT/ΔC (MX1 tumor; [5]): < 0% | SRI activity rating (MX1 tumor; [5]): highly active
